Reference: PubChem BioAssay (NCI)
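96-well plates; 48 h exposure; 5 concentrations. Endpoints by linear interpolation between flanking doses. Not reached: highest tested concentration assigned. The concentration for full growth arrest is given as TGI.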 Active and inactive are the calls of the source. No stated cut-off is given here; in the data, active means GI50 below about 0.43 µM; inactive means the rest.

Columns and labels:
Assay in all cases: NCI tumour cell line growth inhibition, 48 h
786-0 renal = system: 786-0 renal
HOP-18 NSCLC = system: HOP-18 NSCLC
XF 498 CNS = system: XF 498 CNS
LXFL 529 NSCLC = system: LXFL 529 NSCLC
M19-MEL melanoma = system: M19-MEL melanoma
RXF-631 renal = system: RXF-631 renal
SNB-78 CNS = system: SNB-78 CNS
DLD-1 colon = system: DLD-1 colon
DMS 114 small cell lung = system: DMS 114 small cell lung
KM20L2 colon = system: KM20L2 colon
DMS 273 small cell lung = system: DMS 273 small cell lung
SN12K1 renal = system: SN12K1 renal
P388 leukemia = system: P388 leukemia
P388/ADR leukemia = system: P388/ADR leukemia

Row | Structure (SMILES) | TGI (786-0 renal) | also measured
1 | Nc1nn2c(=O)c3ccccc3nc2s1 | > 100 µM | 
2 | Cc1cnc2c(c1)C(=O)C1=C(C2=O)C2OC(=O)CC2OC1(C)C (configuration not stated) | 0.9 µM | 
3 | CCOC(=O)/C=C(\C(=O)OCC)n1ccc(=O)n(Cc2cn(COCCOC(C)=O)nn2)c1=O | 32.9 µM | 
4 | COC(=O)/C(C#N)=C(/NCCN)Nc1ccccc1 | > 100 µM | 
5 | COC(=O)C1=Nc2c(C)nn(-c3ccccc3)c2N=C(c2ccccc2)C1 | > 10 µM | 
6 | CCOC(=O)c1nnsc1NN | > 100 µM | 
7 | O=C(c1ccncc1)C1C(=O)c2ccccc2C1C1(O)c2ccccc2CC1C(O)c1ccncc1 (configuration not stated) | > 100 µM | 
8 | Cc1c2c(OCC3CCCCO3)nn(C)c(=O)c2c(C)n1-c1ccccc1 (configuration not stated) | 33.9 µM | 
9 | CCCCCCCCCc1nn2c(Cc3ccccc3)nnc2s1 | 34.7 µM | 
10 | O=c1cc(-c2ccccc2)oc2c(-c3cc(Cl)cc4c(=O)cc(-c5ccccc5)oc34)cc(Cl)cc12 | > 100 µM | 
11 | COc1cc(/C=C/C=C2\CC/C(=C\C=C\c3ccc(O)c(OC)c3)C2=O)ccc1O | > 100 µM | 
12 | CC(=O)c1ccc2c(c1)CC1(C2)Cc2ccccc2C1=O (configuration not stated) | > 100 µM | 
13 | COc1cc2c(cc1Cc1c(F)cccc1Cl)nc(-c1c(F)cccc1Cl)n2Cc1c(F)cccc1Cl | 64.2 µM | 
14 | CC(C)OC(=O)OCSc1ccccc1N=Cc1cccc([N+](=O)[O-])c1 | > 10 µM | 
15 | [O-]/[N+](=C\c1ccccc1OC(=S)S)c1ccc(Cl)cc1 | 50.3 µM | 
16 | CC(=O)OC(Cn1cncn1)(Cn1cncn1)c1ccc(Cl)cc1Cl | > 100 µM | 
17 | C[n+]1c(-c2ccc(/C=C/C=N\NC(=O)c3ccc(C(=O)N/N=C\C=C\c4ccc(-c5cn6ccccc6[n+]5C)cc4)cc3)cc2)cn2ccccc21 | > 56.2 µM | 
18 | C=Cc1ccccc1C1(O)C=CC(OC)(OC)C=C1 | 16.4 µM | 
19 | CC(=O)OC1CCC2C3CCc4c(C)ccc(OS(=O)(=O)c5ccccc5)c4C3CCC12C (configuration not stated) | 36.9 µM | 
20 | C=C(CN(C)C)C(=O)c1ccccc1[N+](=O)[O-] | 27 µM | TGI (HOP-18 NSCLC): 32.7 µM; TGI (XF 498 CNS): 31.2 µM; TGI (LXFL 529 NSCLC): 30.3 µM; TGI (M19-MEL melanoma): 32 µM; TGI (RXF-631 renal): 34.4 µM; TGI (SNB-78 CNS): 71.4 µM; TGI (DLD-1 colon): 29.5 µM; TGI (DMS 114 small cell lung): 39.1 µM; TGI (KM20L2 colon): > 54.2 µM; TGI (DMS 273 small cell lung): 33.7 µM
21 | COc1ccc(NC(=S)NC(=O)c2ccc3c(c2)Sc2ccccc2O3)c([N+](=O)[O-])c1 | 56.5 µM | 
22 | CN(C)CCC(=O)/C=C\c1ccccc1 | 29.8 µM | TGI (HOP-18 NSCLC): 43.5 µM; TGI (XF 498 CNS): 28.4 µM; TGI (LXFL 529 NSCLC): 26.9 µM; TGI (M19-MEL melanoma): 37.4 µM; TGI (RXF-631 renal): 60.4 µM; TGI (SNB-78 CNS): 37.6 µM; TGI (DLD-1 colon): 31.8 µM; TGI (DMS 114 small cell lung): 33.7 µM; TGI (KM20L2 colon): 86.1 µM; TGI (DMS 273 small cell lung): 33.7 µM

Row | Structure (SMILES) | TGI (786-0 renal) | also measured
23 | CC(=O)c1cnc2oc3ccc(O)cc3c2c1-c1ccccc1 | > 100 µM | 
24 | COc1nc(C#CC(C)(C)C)nc(OC)n1 | > 100 µM | 
25 | OCc1ccc2c(c1)CC1(Cc3ccc(/C=N/O)cc3C1)C2 (configuration not stated) | > 100 µM | 
26 | COC(=O)c1cc(C#N)[nH]c1-c1cc(Br)cs1 | 48.7 µM | 
27 | N#Cc1nc(NC(=O)c2ccccc2C(=O)O)c(C#N)[nH]1 | > 100 µM | 
28 | NC(=O)N/N=C1\CC2C3CC4C2C4C13 (configuration not stated) | > 100 µM | 
29 | COc1ccc(C2c3cc4c(cc3OC(N3CCOCC3)C2C)OCO4)c(OC)c1OC (configuration not stated) | 43.2 µM | 
30 | COc1ccc(N(C(=O)Nc2ccc(Cl)c(Cl)c2)C2c3cccn3C(=O)N2c2ccc(Cl)c(Cl)c2)cc1 (configuration not stated) | > 100 µM | 
31 | O=C(C(Cl)=C(N1CCOCC1)N1CCOCC1)C(Cl)Cl | > 100 µM | 
32 | CC(C)(C)c1cc(C(=O)/C=C/c2ccc3c(c2)OCO3)cc(C(C)(C)C)c1O | 21 µM | 
33 | CCOC(=O)C#Cc1ccccc1 | 21.5 µM | 
34 | CCOC(=O)c1cn2c(n1)sc1cc(Cl)cc(Cl)c12 | > 100 µM | 
35 | CC(=O)O[C@H]1CCc2c(cc(N)c3c2C(=O)C[C@]2(C)C([C@H](C)CCCC(C)C)CCC32C)C1(C)C (some centres not stated) | > 100 µM | 
36 | CCOC(=O)/C(O)=C1\C(=O)N(C)C(=O)C1c1cccc(OC)c1 (configuration not stated) |  | TGI (HOP-18 NSCLC): > 100 µM; TGI (XF 498 CNS): > 100 µM; TGI (M19-MEL melanoma): > 100 µM; TGI (SNB-78 CNS): > 100 µM; TGI (DLD-1 colon): > 100 µM; TGI (SN12K1 renal): > 100 µM; TGI (P388 leukemia): > 100 µM; TGI (DMS 114 small cell lung): > 100 µM; TGI (KM20L2 colon): > 100 µM; TGI (DMS 273 small cell lung): > 100 µM; TGI (P388/ADR leukemia): > 100 µM
37 | Cn1c2ccccc2c(=O)c2c(O)cc3c(c21)C=CC1(CCCCC1)O3 | > 10 µM | 
38 | Cc1ccc(C2=CC(=O)/C(=C\C(=O)c3ccc(Cl)cc3)O2)cc1 | 21.6 µM | 
39 | C=C1c2nc3ccccc3n2C=C(c2ccc(Cl)cc2)N1c1ccc(OC)cc1 | 20.7 µM | 
40 | O=C(N/N=C/c1ccc(Br)cc1)N/N=C/c1ccc(Br)cc1 | 13.4 µM | 
41 | CN(C)CC1CCC(CN(C)C)C1=O (configuration not stated) | 4.11 µM | TGI (HOP-18 NSCLC): 33.2 µM; TGI (XF 498 CNS): 10.3 µM; TGI (LXFL 529 NSCLC): 2.96 µM; TGI (M19-MEL melanoma): 7.96 µM; TGI (SNB-78 CNS): 17.2 µM; TGI (DMS 114 small cell lung): 11.8 µM; TGI (KM20L2 colon): 38 µM; TGI (DMS 273 small cell lung): 36.7 µM
42 | CCOP(=O)(/C=C\n1ccc(N)nc1=O)OCC | > 100 µM | 
43 | Oc1[nH]c2ccccc2c1N=NC(=S)Nc1ccc(Cl)cc1 | > 100 µM | 
44 | S=c1cc(-c2ccc3c(c2)OCO3)s[nH]1 | > 100 µM | 

Row | Structure (SMILES) | TGI (786-0 renal) | also measured
45 | Cc1ccc(/C=C2\Cc3c(C)cc(C)cc3C2=O)c(C(=O)O)c1 | > 100 µM | 
46 | O=c1[nH]nc(Cc2ccccc2)n1/N=C/c1ccncc1 | > 100 µM | 
47 | CNC(=O)CCCNC(=O)CCCC(=O)N(C)C | > 100 µM | 
48 | COc1cc2c(c(O)c1OC)C(=O)C(Cc1ccc(O)cc1)CO2 (configuration not stated) | > 100 µM | 
49 | N#Cc1c(-c2ccccc2)cc(-c2ccc(Cl)cc2)[nH]c1=S | > 100 µM | 
50 | CCCCn1c(-c2ccc([N+](=O)[O-])cc2)cs/c1=N/N=C1\C(=O)Nc2ccc(Br)cc21 | 29.8 µM | 
51 | COCCOCCOC1=CC(=O)c2c(O)ccc(O)c2C1=O | 3.2 µM | 
52 | N#Cc1nc(C2CCC2)oc1N | > 100 µM | 
53 | COc1ccc(COCC[C@H](C)OC2OC(CO[Si](C)(C)C(C)(C)C)C(OC(=O)CCCN=[N+]=[N-])C(OC(=O)CCCN=[N+]=[N-])C2OC(=O)CCCN=[N+]=[N-])cc1 (some centres not stated) | > 100 µM | 
54 | CC12CCCC3(CC(=O)C(C)(C)C3C(=O)C1)C2 (configuration not stated) | > 100 µM | 
55 | c1c2c(cc(-n3nnc4c3CCCCCC4)c1-n1nnc3c1CCCCCC3)CCCCCC2 |  | TGI (XF 498 CNS): 9.62 µM; TGI (M19-MEL melanoma): 25.5 µM; TGI (RXF-631 renal): 34.8 µM; outcome (786-0 renal): inactive; TGI (SNB-78 CNS): 39.4 µM; TGI (DMS 273 small cell lung): 12.3 µM
56 | C\C(=N/N=C1/C(=C\N(C)C)C(=O)NC(=O)N1C)c1ccc(Cl)cc1 | > 100 µM | 
57 | O=c1[nH]c(Nc2cccc(CO)c2)nc2nc[nH]c12 | > 100 µM | 
58 | CC1(C)[C@H]2CC[C@@]13C(=O)N1C(=O)O[C@@H]([C@H]1Cl)C(Cl)(COCc1ccccc1)C(=O)OCCO[C@H]3C2 (some centres not stated) | > 100 µM | 
59 | CN(C)CCNC(=O)c1cccc2nc(-c3ccccc3)oc12 |  | TGI (HOP-18 NSCLC): > 100 µM; TGI (XF 498 CNS): > 91.9 µM; TGI (M19-MEL melanoma): 99.5 µM; TGI (SNB-78 CNS): > 100 µM; TGI (DLD-1 colon): > 100 µM; TGI (SN12K1 renal): > 75.5 µM; TGI (P388 leukemia): 20.3 µM; TGI (DMS 114 small cell lung): > 100 µM; TGI (KM20L2 colon): > 100 µM; TGI (P388/ADR leukemia): > 64.3 µM
60 | O=C1CSC2=NC3=C(COC/C3=C\c3ccc(Br)cc3)C(c3ccc(Br)cc3)N12 (configuration not stated) | > 100 µM | 
61 | COc1cc2ccc1OCc1cccc(n1)COc1ccc(cc1OC)C=Nc1ccc(cc1)N=C2 | > 100 µM | 
62 | CO[C@@H]1O[C@H](C(=O)c2ccccc2)[C@H]2OC(C)(C)O[C@@H]12 | > 100 µM | 
63 | COc1ccc(CC2COc3cc(O)cc(O)c3C2=O)cc1O (configuration not stated) | 92.3 µM | 
64 | COC1CC(OC2CCC3(C)C(=CCC4C3C(OC(C)=O)C(OC(=O)CC(C)C)C3(C)C(C(C)=O)CCC43O)C2)OC(C)C1OC1CC(OC)C(OC2CC(OC)C(OC3OC(C)C(OC4OC(CO)C(O)C(O)C4O)C(OC)C3O)C(C)O2)C(C)O1 (configuration not stated) | > 75 µM | 
65 | O=c1cc(/C=C/c2ccccc2)[nH]c2cc3c(cc12)OCO3 | 12.7 µM | 
